We go through ten molecules from PMC7049619 (Acta Pharmaceutica Sinica. B, 2019).

Series [1] can be described thus: Cytotoxicity in C8166 cells by MTT method. As to conditions: human. A general note: Tetrazolium dyes change colour on reduction, which living cells bring about.
A further series deals with HIV-1IIIB. As to the kind of experiment: Anti-HIV-1 activity. Format: cell-based. The following applies: for SI (selectivity index): ratio CC50/EC50, C8166 cells, Table 1; for times more potent than NVP: C8166, Table 1 EC50.
The test system of the next series is HIV-1TC-1. The class given is cell-based. As to conditions: Human immunodeficiency virus 1, PBMC, HIV-1TC-1, PBMC; Table 2.
The target of a further series is recombinant HIV-1 RT (Human immunodeficiency virus type 1 group M subtype B, UniProt P04585). The series is described as follows: Enzymatic recombinant HIV-1 RT activity assay. Format: biochemical.
A further series has as its system HIV-1WAN. The class given is cell-based. The following applies: Human immunodeficiency virus 1, PBMC.
In the next series the test system is HIV-1RF/V82F/184V. As to the kind of experiment: Anti-HIV-1 activity against resistant strain HIV-1RF/V82F/184V in C8166 cells. The class given is cell-based. As to conditions: Human immunodeficiency virus 1, C8166.
A further series has as its system HIV-1A17 (K103N + Y181C). The series is described as follows: Anti-HIV-1 activity against resistant strain HIV-1A17. The class given is cell-based. As to conditions: Human immunodeficiency virus 1, C8166.
In the next series the test system is HIV-1_74V. As to the kind of experiment: Anti-HIV-1 activity against resistant strain HIV-1_74V in C8166 cells. Format: cell-based. The following applies: Human immunodeficiency virus 1, C8166.
The nature of series [2]: Cytotoxicity in TZM-bl cells. As to conditions: human. Format: cell-based.
A short description of another series: Cytotoxicity in PBMC. Format: cell-based. As to conditions: human, PBMC (peripheral blood mononuclear cells).
A further series relates to HIV-1Ba-L. As to the kind of experiment: Anti-HIV-1Ba-L activity, luciferase gene expression assay in TZM-bl cells. The class given is cell-based. As to conditions: Human immunodeficiency virus 1, TZM-b1.
A short description of the next series: in vivo. The following applies: male, Sprague-Dawley, rat, plasma.
The test system of series [3] is HIV-1 laboratory adapted strains and primary isolated strains. The class given is cell-based. The following applies: HIV-1IIIB, HIV-1Ba-L and HIV-1TC-1; Table 2 EC50.
For series [4], the system named is K103N/Y181C double mutant HIV-1 strain. As to conditions: cited from earlier work.

A word on the CC50: it is the concentration giving 50% cytotoxicity. As a reminder, the EC50 is the concentration needed to bring the measured effect to its halfway point. What is called IC50 is the concentration needed to halve the response being measured. As a reminder, the AUC(0-inf) is total exposure, with the tail of the curve extrapolated. A high value points to more exposure. The term AUC(0-t) denotes the area under the concentration-time curve up to a stated or last time point. The low end stands for low exposure, the high end for high exposure. As usually defined, the Cmax is the peak of the concentration-time curve. By MRT inf is commonly meant a mean duration of stay, worked out from the concentration-time curve. One may read the Vd as the apparent volume that relates the amount in the body to the concentration in plasma or blood. A word on the clearance: it is a measure of how efficiently the substance is removed, as volume per time. Low readings indicate inefficient removal, high ones efficient removal. In general, half-life refers to the time in which the quantity being followed falls by half. The bioavailability is dose-corrected exposure relative to a reference, in per cent. A high value points to much systemic uptake. In general, CL/F refers to the apparent clearance, not corrected for the fraction that reaches the circulation. One may read the MRT as the average time that molecules of a dose stay in the body. In general, Tmax refers to the time from dosing to the highest level.

Molecules are shown by their SMILES. “And” between values parts separate entries of the source, which are not always exact repeats. Equal entries are not always repeated.

Consider `CCc1c(CC2CCCCC2)nc(SCc2cc(-c3cccc(C)c3)[nH]n2)[nH]c1=O` [I-02, 6-(Cyclohexylmethyl)-5-ethyl-2-(((5-(m-tolyl)-1H-pyrazol-3-yl)methyl)thio)pyrimidin-4(3H)-one], for which the CC50 at 3 days in [1] turned out to be 82800 ± 2200 nM. Moreover, the “SI (selectivity index)” value in the series on HIV-1IIIB is listed as 1120.

On to `CCc1c(CC2CCCCC2)nc(SCc2cc(-c3ccc(C)cc3)[nH]n2)[nH]c1=O` [I-07, 6-(Cyclohexylmethyl)-5-ethyl-2-(((5-(p-tolyl)-1H-pyrazol-3-yl)methyl)thio)pyrimidin-4(3H)-one], for which the CC50 at 3 days in [1] came to 91400 ± 1900 nM. Also, the “SI (selectivity index)” value with HIV-1IIIB was 1748.

As for `CCc1c(CC2CCCCC2)nc(SCc2cc(-c3ccc(SC)cc3)[nH]n2)[nH]c1=O` [I-12, 6-(Cyclohexylmethyl)-5-ethyl-2-(((5-(4-(methylthio)phenyl)-1H-pyrazol-3-yl)methyl)thio)pyrimidin-4(3H)-one], the 50% effective concentration (EC50) in the series with HIV-1TC-1 came out at 55.4 ± 11.2 nM; with HIV-1WAN, 165 nM; in the series with HIV-1RF/V82F/184V it was 219 ± 46.5 nM; in the series on HIV-1A17 (K103N + Y181C), 4870 ± 2710 nM; with HIV-1_74V, 88.1 ± 17.9 nM; in the series with HIV-1Ba-L, 193 ± 26.1 nM. Moreover, at recombinant HIV-1 RT, the IC50 was found to be 2270 ± 120 nM. In addition, in series [2], the CC50 at 3 days is above 200000 nM. The CC50 in the series “Cytotoxicity in PBMC” is above 200000 nM.

The molecule `CCc1c(CC2CCCCC2)nc(SCc2n[nH]c(-c3ccc(Cl)c(Cl)c3)c2Cl)[nH]c1=O` [I-32, 2-(((4-Chloro-5-(3,4-dichlorophenyl)-1H-pyrazol-3-yl)methyl)thio)-6-(cyclohexylmethyl)-5-ethyl-pyrimidin-4(3H)-one] registered a cytotoxic concentration (CC50) at 3 days in series [1] of 190000 ± 13900 nM. Further, in the series with HIV-1IIIB, the “SI (selectivity index)” value was found to be 544.

With `Cc1ccnc2c1NC(=O)c1cccnc1N2C1CC1` [NVP, nevirapine, reference compound], the half-maximal effective concentration (EC50) with HIV-1TC-1 worked out at 199 ± 48.7 nM; with HIV-1WAN it was 77 ± 19.3 nM; in the series with HIV-1RF/V82F/184V it was 61.4 ± 8.5 nM; in the series with HIV-1A17 (K103N + Y181C), 20200 ± 3100 nM; in the series on HIV-1_74V it was 76.8 ± 19.3 nM; in the series on HIV-1Ba-L, 166 ± 46.5 nM. Further, in series [2], the CC50 at 3 days was above 200000 nM. The CC50 in the series “Cytotoxicity in PBMC” was above 200000 nM.

Turning to `CCc1c(CC2CCCCC2)nc(SCc2cc(-c3ccccc3)[nH]n2)[nH]c1=O` [I-01, 6-(Cyclohexylmethyl)-5-ethyl-2-(((5-phenyl-1H-pyrazol-3-yl)methyl)thio)pyrimidin-4(3H)-one], in the series on HIV-1IIIB, the “times more potent than NVP” value is “about 10 times”.

In turn, `O=c1cc(CC2CCCCC2)nc(SCc2cc(-c3ccccc3)[nH]n2)[nH]1` [I-38, 6-(Cyclohexylmethyl)-2-(((5-phenyl-1H-pyrazol-3-yl)methyl)thio)pyrimidin-4(3H)-one] came in with a CC50 at 3 days in series [1] of 79100 ± 5340 nM. The “SI (selectivity index)” value in the series on HIV-1IIIB stood at 16.

For `CCc1c(CC2CCCCC2)nc(SCc2cc(-c3ccc(O)cc3)[nH]n2)[nH]c1=O` [I-11, 6-(Cyclohexylmethyl)-5-ethyl-2-(((5-(4-hydroxyphenyl)-1H-pyrazol-3-yl)methyl)thio)pyrimidin-4(3H)-one], it took 14.5 ± 0.1 nM to reach a half-maximal effect in the series on HIV-1TC-1 (EC50). In addition, the half-inhibitory concentration (IC50) at recombinant HIV-1 RT was found to be 1090 ± 590 nM. Moreover, in the series with HIV-1WAN, the concentration for a half-maximal effect (EC50) was found to be 56.6 ± 2.4 nM. Further, in the series “in vivo” (iv, 1 mg/kg), the AUC(0-inf) was determined as 2630 ng·h/mL, the AUC(0-t) is 2600 ng·h/mL, the Cmax was 7180 ng/mL and the MRT inf turned out to be 33.2 min. In the series “in vivo” (iv, 1 mg/kg), this molecule had a Vd of 0.213 L/kg, a clearance of 6.4 mL/min/kg and a half-life of 72 min. This molecule also returned a bioavailability in “in vivo” (oral, 5 mg/kg) of 10.4%. Also, in “in vivo” (po, 5 mg/kg), the AUC(0-inf) was found to be 1370 ng·h/mL; the AUC(0-t) is 1300 ng·h/mL; the CL/F is 63.8 mL/min/kg; the Cmax is 1.54 µM and 654 ng/mL. Besides, in “in vivo” (po, 5 mg/kg), the mean residence time MRT is 33.2 min, the Tmax amounted to 30 min and the half-life is 150 min. Also, the half-maximal effective concentration (EC50) with HIV-1RF/V82F/184V worked out at 54.1 ± 23.1 nM. Further, in the series with HIV-1A17 (K103N + Y181C), the concentration for a half-maximal effect (EC50) was 2770 ± 820 nM. Besides, the “times more potent than NVP” value in [3] is recorded as 5–14 times. The molecule further yielded an EC50 with HIV-1_74V of 46.2 ± 23.7 nM. The molecule also returned a CC50 at 3 days in series [2] of 77100 ± 3680 nM. In the series “Cytotoxicity in PBMC”, this molecule came in with a CC50 of 46800 ± 5200 nM. This molecule also showed an EC50 in the series with HIV-1Ba-L of 48.5 ± 6.8 nM. Further, in the series on HIV-1IIIB, the “times more potent than NVP” value is reported as “about 10 times”.

Regarding `Cc1cc(C#N)cc(C)c1Oc1nc(Nc2ccc(C#N)cc2)nc(N)c1Br` [ETR, etravirine, reference compound], the CC50 at 3 days in series [1] was determined as 27500 ± 5690 nM. In addition, the EC50 in series [4] was 50 nM. For the same molecule, the “SI (selectivity index)” value with HIV-1IIIB was 19,628.

Molecule `Cc1cn([C@H]2C[C@H](N=[N+]=[N-])[C@@H](CO)O2)c(=O)[nH]c1=O` [AZT, zidovudine, reference compound] had a CC50 at 3 days in series [1] above 200000 nM. The “SI (selectivity index)” value with HIV-1IIIB was >22,472.
